According to article PMC10233829 (ACS Omega, 2023):
Values after ≈ are worked out from the molar mass of the structure shown.

What was measured:
S. aureus 180 = assay: MIC, twofold microdilution, clinical strain; assay type: cell-based; settings: Staphylococcus aureus, 18 h
E. cloacae 8 = assay: MIC, twofold microdilution, clinical strain; assay type: cell-based, Escherichia cloacae; settings: for MIC: Enterobacter cloacae, 8, clinical strain, 18 h
S. pasteuri KR 4358 = assay: MIC, twofold microdilution, clinical strain; assay type: cell-based; settings: Staphylococcus pasteuri, KR4358, 18 h
E. coli 520 = assay: MIC, twofold microdilution, clinical strain; assay type: cell-based; settings: Escherichia coli, 18 h
S. epidermidis 4341 = assay: MIC, twofold microdilution, clinical strain; assay type: cell-based; settings: Staphylococcus epidermidis, 18 h
S. aureus NCTC 4163 = assay: MIC, twofold microdilution, standard strain; assay type: cell-based; settings: Staphylococcus aureus, NCTC4163, 18 h
E. coli ATCC 25922 = assay: MIC, twofold microdilution, standard strain; assay type: cell-based, Escherichia coli; settings: for MIC: Escherichia coli, ATCC25922, standard strain, 18 h
[1] = MTT assay, cytotoxic activity; assay type: cell-based; settings: human, HaCaT cells (immortal keratinocytes); MTT, 72 h, normal cell line; read-out: IC50 HaCaT
In short: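 MTT assay on cells grown at 37 °C/5% CO2. Viability is expressed as relative MTT reduction: test absorbance divided by untreated-control absorbance, ×100%.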

S. aureus 5595 = assay: MIC, twofold microdilution, clinical strain; assay type: cell-based; settings: Staphylococcus aureus, 18 h
S. epidermidis 5253 = assay: MIC, twofold microdilution, clinical strain; assay type: cell-based, Staphylococcus epidermidis; settings: for MIC: Staphylococcus epidermidis, 5253, 18 h
S. aureus ATCC 25923 = assay: MIC, twofold microdilution, standard strain; assay type: cell-based; settings: Staphylococcus aureus, ATCC25923, 18 h
K. pneumoniae 510 = assay: MIC, twofold microdilution, clinical strain; assay type: cell-based, Klebsiella pneumoniae; settings: for MIC: Klebsiella pneumoniae, 510, clinical strain, 18 h
E. coli 600 = assay: MIC, twofold microdilution, clinical strain; assay type: cell-based, Escherichia coli; settings: Escherichia coli, 600, 18 h
P. aeruginosa 659 = assay: MIC, twofold microdilution, clinical strain; assay type: cell-based; settings: Pseudomonas aeruginosa, 18 h
[2] = test system: S. epidermidis ATCC 12228; assay: MIC, twofold microdilution, standard strain; assay type: cell-based; settings: Staphylococcus epidermidis, ATCC12228, 18 h
S. epidermidis KR4243/1 = assay: MIC, twofold microdilution, clinical strain; assay type: cell-based; settings: Staphylococcus epidermidis, 18 h
[3] = test system: M. tuberculosis Spec. 192; assay: Tuberculostatic activity, Microplate Alamar Blue Assay (MIC); assay type: cell-based; settings: Mycobacterium tuberculosis, MABA, read-out: MIC M. tuberculosis Spec. 192 (sensitive to tuberculostatics)
S. aureus T5595 = assay: MIC, twofold microdilution, clinical strain; assay type: cell-based, Staphylococcus aureus; settings: for MIC: Staphylococcus aureus, T5595, 18 h
[4] = test system: clinical bacterial strains; assay: MIC, clinical isolates as groups of strains; assay type: cell-based
PC3 cells = assay: MTT assay, cytotoxic activity; assay type: cell-based, human; settings: Homo sapiens, PC-3, 72 h, MTT, 72 h
In short: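 PC3 cells were grown at 37 °C/5% CO2 and exposed to test compounds. Viability came from MTT reduction, as test absorbance over untreated-control absorbance × 100%.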

M. tuberculosis H37Rv = assay: Tuberculostatic activity, Microplate Alamar Blue Assay (MIC); assay type: cell-based, Mycobacterium tuberculosis; parameters: concentration with growth inhibition as good as RMP and SM or EMB: unit not given here; settings: for MIC: Mycobacterium tuberculosis, H37RV, MABA, read-out: MIC M. tuberculosis H37Rv
S. aureus T5591 = assay: MIC, twofold microdilution, clinical strain; assay type: cell-based, Staphylococcus aureus; settings: for MIC: Staphylococcus aureus, T5591, 18 h
E. coli 951 = assay: MIC, twofold microdilution, clinical strain; assay type: cell-based; settings: Escherichia coli, 18 h
P. aeruginosa 37 = assay: MIC, twofold microdilution, clinical strain; assay type: cell-based; settings: Pseudomonas aeruginosa, 18 h
S. aureus ATCC 29213 = assay: MIC, twofold microdilution, standard strain; assay type: cell-based; settings: Staphylococcus aureus, ATCC29213, 18 h
K. pneumoniae 28 = assay: MIC, twofold microdilution, clinical strain; assay type: cell-based; settings: Klebsiella pneumoniae, 18 h
S. aureus ATCC 6538 = assay: MIC, twofold microdilution, standard strain; assay type: cell-based, Staphylococcus aureus; settings: for MIC: Staphylococcus aureus, ATCC6538, standard strain, 18 h
P. aeruginosa ATCC 15442 = assay: MIC, twofold microdilution, standard strain; assay type: cell-based, Pseudomonas aeruginosa; settings: for MIC: Pseudomonas aeruginosa, ATCC15442, standard strain, 18 h
[5] = test system: S. epidermidis ATCC 35984; assay: MIC, twofold microdilution, standard strain; assay type: cell-based; settings: Staphylococcus epidermidis, ATCC35984, 18 h

Row | Compound | MIC (S. aureus 180) [µg/mL] | MIC (E. cloacae 8) [µg/mL] | MIC (S. pasteuri KR 4358) [µg/mL] | MIC (E. coli 520) [µg/mL] | MIC (S. epidermidis 4341) [µg/mL] | MIC (S. aureus NCTC 4163) [µg/mL] | MIC (E. coli ATCC 25922) [µg/mL] | IC50 at 72 h [1] [µM] | MIC (S. aureus 5595) [µg/mL] | MIC (S. epidermidis 5253) [µg/mL] | MIC (S. aureus ATCC 25923) [µg/mL] | MIC (K. pneumoniae 510) [µg/mL] | MIC (E. coli 600) [µg/mL] | MIC (P. aeruginosa 659) [µg/mL] | MIC [2] [µg/mL] | MIC (S. epidermidis KR4243/1) [µg/mL] | MIC [3] [µg/mL] | MIC (S. aureus T5595) [µg/mL] | IC50 (PC3 cells) [µM] | MIC (M. tuberculosis H37Rv) [µg/mL] | further results
1 | O=C(O)c1cn(C2CC2)c2cc(N3CCN(C(=O)C4CC4)CC3)c(F)cc2c1=O [Compound 2, 7-(4-Cyclopropanecarbonyl-piperazin-1-yl)-1-cyclopropyl-6-fluoro-4-oxo-1,4-dihydro-quinoline-3-carboxylic Acid] | 0.4 (≈ 1 µM) | 0.05 (≈ 0.125 µM) | 0.2 (≈ 0.501 µM) | 0.2 (≈ 0.501 µM) | 12.8 (≈ 32 µM) | 0.1 (≈ 0.25 µM) | 0.05 (≈ 0.125 µM) | 75.7 ± 7.5 | 0.4 (≈ 1 µM) | 12.8 to 25.6 (≈ 32 to 64.1 µM) | 0.2 (≈ 0.501 µM) | 25.6 (≈ 64.1 µM) | 0.2 (≈ 0.501 µM) | 6.4 (≈ 16 µM) | 0.1 (≈ 0.25 µM) | 0.2 (≈ 0.501 µM) | 0.5 (≈ 1.25 µM) | 0.1 to 0.2 (≈ 0.25 to 0.501 µM) | 85.2 ± 8.2 | 1 (≈ 2.5 µM) | MIC times lower than CP alone (E. cloacae 8; E. cloacae isolate): 1.2 times; MIC S. epidermidis 5253 (S. epidermidis 5253; 18 h): 25.6 µg/mL (≈ 64.1 µM); MIC S. aureus T5595 (S. aureus T5595; 18 h): 0.2 µg/mL (≈ 0.501 µM); times more powerful than CP ([4]; S. aureus T5595 and T5591): 1.25–2.5 times; MIC ([4]; clinical strains, read-out: MIC against selected E. coli and E. cloacae strains): 0.1 to 0.8 µg/mL (≈ 0.25 to 2 µM); concentration with growth inhibition as good as RMP and SM or EMB (M. tuberculosis H37Rv; M. tuberculosis H37Rv): 1–2; MIC S. aureus T5591 (S. aureus T5591; 18 h): 0.2 µg/mL (≈ 0.501 µM); MIC (S. aureus T5591): 0.1 to 0.2 µg/mL (≈ 0.25 to 0.501 µM); MIC (E. coli 951): 6.4 µg/mL (≈ 16 µM); MIC (P. aeruginosa 37): 12.8 µg/mL (≈ 32 µM); MIC (S. aureus ATCC 29213): 0.1 µg/mL (≈ 0.25 µM); MIC (K. pneumoniae 28): > 25.6 µg/mL; MIC (S. aureus ATCC 6538): 0.1 µg/mL (≈ 0.25 µM); MIC (P. aeruginosa ATCC 15442): 0.8 µg/mL (≈ 2 µM); MIC [5]: 0.1 µg/mL (≈ 0.25 µM)
2 | O=C(O)c1cn(C2CC2)c2cc(N3CCN(C(=O)CCCCl)CC3)c(F)cc2c1=O [Compound 5, 7-[4-(4-Chlorobutyryl)-piperazin-1-yl]-1-cyclopropyl-6-fluoro-4-oxo-1,4-dihydro-quinoline-3-carboxylic Acid] | 0.4 (≈ 0.918 µM) | 0.05 (≈ 0.115 µM) | 0.2 (≈ 0.459 µM) | 0.025 (≈ 0.0574 µM) | 12.8 (≈ 29.4 µM) | 0.2 (≈ 0.459 µM) | 0.025 (≈ 0.0574 µM) | > 100 | 0.4 (≈ 0.918 µM) | > 25.6 | 0.8 (≈ 1.84 µM) | 6.4 (≈ 14.7 µM) | 0.025 (≈ 0.0574 µM) | 0.8 (≈ 1.84 µM) | 0.4 (≈ 0.918 µM) | 0.2 (≈ 0.459 µM) | 0.5 (≈ 1.15 µM) | 0.4 (≈ 0.918 µM) | 97.2 ± 11 | 0.5 (≈ 1.15 µM) | MIC used in biofilm eradication assay, E. coli ATCC 25922 (E. coli ATCC 25922; Table S1, MIC): 0.025 µg/mL (≈ 0.0574 µM); share of the reference (CP) activity (K. pneumoniae 510; Klebsiella pneumoniae rods): 62.5%; share of the reference (CP) activity ([4]; S. aureus T5595 and T5591): 62.5%; MIC (S. aureus T5591): 0.4 µg/mL (≈ 0.918 µM); MIC (E. coli 951): 0.8 µg/mL (≈ 1.84 µM); MIC (P. aeruginosa 37): 0.8 µg/mL (≈ 1.84 µM); MIC (S. aureus ATCC 29213): 0.4 µg/mL (≈ 0.918 µM); MIC (K. pneumoniae 28): > 25.6 µg/mL; MIC (S. aureus ATCC 6538): 0.2 µg/mL (≈ 0.459 µM); MIC used in biofilm eradication assay, S. aureus 6538 (S. aureus ATCC 6538; Table S1, MIC): 0.200 µg/mL (≈ 0.459 µM); MIC (P. aeruginosa ATCC 15442): 0.2 µg/mL (≈ 0.459 µM); MIC used in biofilm eradication assay, P. aeruginosa 15442 (P. aeruginosa ATCC 15442; Table S1, MIC): 0.200 µg/mL (≈ 0.459 µM); MIC [5]: 0.2 µg/mL (≈ 0.459 µM)
3 | O=C(O)c1cn(C2CC2)c2cc(N3CCN(C(=O)CCC(F)(F)F)CC3)c(F)cc2c1=O [Compound 15, 7-[4-(4,4,4-Trifluorobutyryl)-piperazin-1-yl]-1-cyclopropyl-6-fluoro-4-oxo-1,4-dihydro-quinoline-3-carboxylic Acid] | 0.5 (≈ 1.1 µM) | > 25.6 | 0.2 (≈ 0.439 µM) | 3.2 (≈ 7.03 µM) | > 25.6 | 0.2 (≈ 0.439 µM) | 1.6 (≈ 3.51 µM) | 85.5 ± 9.2 | 0.5 (≈ 1.1 µM) | > 25.6 | 0.2 (≈ 0.439 µM) | > 25.6 | 3.2 (≈ 7.03 µM) | > 25.6 | 0.2 (≈ 0.439 µM) | 0.2 (≈ 0.439 µM) | 64 (≈ 141 µM) | 0.4 (≈ 0.878 µM) | 15.7 ± 3.8 | 64 (≈ 141 µM) | share of the reference (CP) activity ([4]; S. aureus T5595 and T5591): 62.5%; MIC (S. aureus T5591): 0.4 µg/mL (≈ 0.878 µM); MIC (E. coli 951): > 25.6 µg/mL; MIC (P. aeruginosa 37): > 25.6 µg/mL; MIC (S. aureus ATCC 29213): 0.2 µg/mL (≈ 0.439 µM); MIC (K. pneumoniae 28): > 25.6 µg/mL; MIC (S. aureus ATCC 6538): 0.2 µg/mL (≈ 0.439 µM); MIC (P. aeruginosa ATCC 15442): 1 µg/mL (≈ 2.2 µM); MIC [5]: 0.2 µg/mL (≈ 0.439 µM)
